According to ChEMBL document CHEMBL4382277, “Novel Fluorescence Competition Assay for Retinoic Acid Binding Proteins” (ACS Med Chem Lett, 2018):
The source made the active and inactive calls. The calls are words filed in the database; no cut-off is given here.

Key:
[1] = target: T1, Cellular retinoic acid-binding protein 2 (Homo sapiens) (UniProt P29373); assay: Displacement of DC271 from CRABP2 (unknown origin) at 200 to 1600 nM by fluorescence assay
T1 sequence (whole entry): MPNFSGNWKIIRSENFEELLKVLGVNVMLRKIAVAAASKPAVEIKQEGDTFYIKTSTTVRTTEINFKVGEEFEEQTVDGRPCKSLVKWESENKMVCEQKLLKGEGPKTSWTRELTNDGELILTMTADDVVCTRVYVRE

[2] = target: T2, Cellular retinoic acid-binding protein 2 (Homo sapiens, UniProt P29373); assay: Displacement of DC271 from CRABP2 (unknown origin) by fluorescence assay
T2 sequence (P29373 whole entry): T1 sequence (whole entry)

Compound | inhibition [1] | Kd [2]
c1ccc2ncccc2c1 | inactive | –
CC1=C(/C=C/C(C)=C\C=C\C(C)=C\C(=O)O)C(C)(C)CCC1 | Active | –
O=C(O)c1ccccc1 | inactive | –
CC1(C)CCC(C)(C)c2cc(C#Cc3ccc(C(=O)O)cc3)ccc21 | – | 160 nM

Results, then the compound that gave them:

inhibition [1] | Kd [2] | Compound
Active | – | CC1=C(/C=C/C(C)=C/C=C/C(C)=C/C(=O)O)C(C)(C)CCC1
inactive | – | CC1=C(/C=C/C(C)=C/C=C/C(C)=C\C(=O)O)C(C)(C)CCC1
